{"source": "paper PMC9861386", "about": "“N-Heterocyclic Carbene-Iridium Complexes as Photosensitizers for In Vitro Photodynamic Therapy to Trigger Non-Apoptotic Cell Death in Cancer Cells” (Molecules, 2023)", "key": {"[1]": {"assay": "Photophysical measurements (emission, quantum yield, lifetime) in CH2Cl2", "type": "physicochemical", "from_the_text": "All complexes have been photophysically investigated at standard pressure in CH2Cl2 at 298 K. The absorption spectra of complexes 4a to 4g in CH2Cl2 at 298 K are shown in Figure 7. The strong absorption bands below 300 nm correspond to spin-allowed ^1π→π* electronic ligand-centered (LC) transitions. The structureless bands at 300–360 nm are attributed to ppy-to-ppy ^1π→π* […] charge transfer (LLCT) and Ir-to-ppy metal-to-ligand charge transfer (MLCT) transitions. The lowest-lying bands in the visible region can be assigned to both singlet and triplet MLCT transitions. No significant difference in the absorption spectra of complexes 4a to 4g can be found in the CH2Cl2 solution.\nThe luminescence spectra of complexes 4a to 4f in CH2Cl2 at 298 K are shown in Figure 8 and their photophysical data are summarized in Table 1.\nThe relative emission quantum yields (ΦPL) of these complexes in CH2Cl2 at room temperature were measured by using POPOP and quinine sulfate in 1 N H2SO4 as standard references (ΦPL = 97% and ΦPL = 54%, respectively). […] In addition, the excited-state lifetimes of complexes 4a to 4d are in the range of 166.4–190.7 ns, indicating the phosphorescence nature of the emissions.\nUV/Vis absorption spectra were recorded at RT on solutions contained in quartz cuvettes (optical pathlength 1 cm, Hellma® (HELLMA, Müllheim, Germany)) with a PerkinElmer® (PerkinElmer, Waltham, MA, USA) UV/VIS/NIR spectrophotometer Lambda 950 and a PerkinElmer® detector UV/VIS/NIR Accessory 2D Detector Module.\nFluorescence and phosphorescence emission spectra were obtained with a HORIBA JOBIN YVON (Bensheim, Germany) fluromax-4 and spectrofluorometer.\nLuminescence quantum yields were measured according to the method of Demas and Crosby, on solution samples at RT. The quantum yield is defined as: ΦS=ΦR*As/Ar* ηs/ηr^2^2 where ΦS is the quantum yield of the sample, ΦR is the known quantum yield of the reference standard at the area subtended by the emission band (on a wavelength scale) and η is the refractive index of the solvent used for the preparation of the solution. As (related to the sample) and Ar (related to the reference) must be excitation wavelength. Different standards were selected depending on the spectral region of the interest: POPOP in hexane (Φ = 97%) and QUININNE in water (Φ = 54%).\nFluorescence lifetime measurements were performed by an Edinburgh FLS920 spectrofluorometer equipped with a TCC900 card for data acquisition in time-correlated single-photon counting experiments (0.5 ns time resolution) with a D2 lamp and an LDH-P-C-405 pulsed diode laser. The estimated experimental error was 2 nm on the band maximum (5% on the lifetime, 10% on the fluorescence quantum yield)."}, "A549 lung cancer cells": {"system": "A549 lung cancer cells", "assay": "MTT cell viability, 72 h, dark or 458 nm irradiation", "type": "cell-based, human", "conditions": "for GI50: 72 h, MTT", "description": "(§1) For all biology experiments, the compounds were solubilized in DMSO to reach a final fixed concentration equal to 0.1% v/v to avoid cytotoxicity caused by DMSO [89]. The results are normalized to controls (0.1% v/v DMSO). Depending on the cell type, approximatively 1000 to 10,000 cells/cm^2 were seeded in 48-well plates for MTT, ATP and GSH assays and 60 mm Petri dishes for Western blots. Cells were allowed to attach overnight and then incubated for 4 h with the different complexes (in the dark), then irradiated for 10 min, followed by an incubation in the dark up to 72 h.\n(§2) Irradiation was conducted using an in-house device: a series of blue light LEDs selected according to the absorption spectra of the compounds at a 458 nm wavelength with an emitted power of 9.6 watts. The absorbed energy, or irradiance, was measured at 458 nm with a Thorlabs Optical Power Meter PM100A at 5 and 10 cm distance between the cell layer and the light source and expressed as mW/cm^2.\n(§3) A tetrazolium-based MTT reagent (3-(4,5-dimethylthiazol-2-yl)-2,5-diphenyltetrazolium bromide) was used to determine cell viability, as previously described. After 72 h of treatment at 37 °C and 5% CO2, cells were incubated with 25 μL MTT solution (5 mg/mL; Sigma-Aldrich) for 4 h. After solubilization with 500 μL of lysis buffer (DMSO), formazan was quantified by spectrophotometry with a microplate reader at 570 nm absorbance (ClarioSTAR, BMG LabTech, Champigny-sur-Marne, France). GI50 values corresponding to the concentration that caused 50% inhibition of cell proliferation were calculated from dose–response curves obtained by nonlinear regression analysis. All results were calculated from data obtained in at least three independent experiments."}, "HeLa cervix cancer cells": {"system": "HeLa cervix cancer cells", "assay": "MTT cell viability, 72 h, dark or 458 nm irradiation", "type": "cell-based, human", "conditions": "for GI50: 72 h, MTT", "description": "as §1, §2, §3"}, "[2]": {"system": "MCF7/FasR breast cancer cells", "assay": "MTT cell viability, 72 h, dark or 458 nm irradiation", "type": "cell-based, human", "conditions": "for GI50: 72 h, MTT", "description": "as §1, §2, §3"}, "[3]": {"system": "PC-3 prostate cancer cells", "assay": "MTT cell viability, 72 h, dark or 458 nm irradiation", "type": "cell-based, human", "conditions": "for GI50: 72 h, MTT", "description": "as §1, §2, §3"}, "T24 bladder cancer cells": {"system": "T24 bladder cancer cells", "assay": "MTT cell viability, 72 h, dark or 458 nm irradiation", "type": "cell-based, human", "conditions": "for GI50: 72 h, MTT", "description": "as §1, §2, §3"}, "[4]": {"system": "panel of five cancer cell lines (T24, PC-3, MCF7, A549, HeLa)", "assay": "MTT cell viability, 72 h, pooled over the cancer cell panel", "type": "cell-based, human", "description": "as §1, §2, §3"}, "[5]": {"conditions": "GI50 non-irradiated / GI50 irradiated"}}, "note": "Like-named read-outs stand apart in the source and are kept apart here."}
{"compound": "F[P-](F)(F)(F)(F)F.c1ccc(C[n+]2ccn3[c]2[Ir-3]24([c]5ccccc5-c5cccc[n+]52)([c]2ccccc2-c2cccc[n+]24)[c]2n(cc[n+]2Cc2ccccc2)C3)cc1", "note": "[Complex 4c]", "values": [{"measurement": "τ1 excited-state lifetime", "setting": "[1]; CH2Cl2", "value": 180, "unit": "ns"}, {"measurement": "ΦPL emission quantum yield", "setting": "[1]; CH2Cl2, 298 K, references POPOP and quinine sulfate", "value": 1.6, "unit": "%"}, {"measurement": "GI50", "setting": "A549 lung cancer cells; 458 nm irradiation 10 min, read-out: GI50 A549 Blue", "value": 171, "unit": "nM"}, {"measurement": "PI A549", "setting": "A549 lung cancer cells; [5]", "value": 2.4}, {"measurement": "SI vs MC3T3, A549 Blue", "setting": "A549 lung cancer cells; blue light, GI50 MC3T3 / GI50 A549", "value": 7.8}, {"measurement": "SI vs NIH, A549 Blue", "setting": "A549 lung cancer cells; blue light, GI50 NIH-3T3 / GI50 A549", "value": 15.6}, {"measurement": "GI50", "setting": "A549 lung cancer cells; dark, read-out: GI50 A549 Dark", "value": 407, "unit": "nM"}, {"measurement": "SI vs MC3T3, A549 Dark", "setting": "A549 lung cancer cells; dark, GI50 MC3T3 / GI50 A549", "value": 2.9}, {"measurement": "SI vs NIH, A549 Dark", "setting": "A549 lung cancer cells; dark, GI50 NIH-3T3 / GI50 A549", "value": 6.7}, {"measurement": "GI50", "setting": "HeLa cervix cancer cells; 458 nm irradiation 10 min, read-out: GI50 HeLa Blue", "value": 275, "unit": "nM"}, {"measurement": "PI HeLa", "setting": "HeLa cervix cancer cells; [5]", "value": 1.8}, {"measurement": "SI vs MC3T3, HeLa Blue", "setting": "HeLa cervix cancer cells; blue light, GI50 MC3T3 / GI50 HeLa", "value": 4.8}, {"measurement": "SI vs NIH, HeLa Blue", "setting": "HeLa cervix cancer cells; blue light, GI50 NIH-3T3 / GI50 HeLa", "value": 9.7}, {"measurement": "GI50", "setting": "HeLa cervix cancer cells; dark, read-out: GI50 HeLa Dark", "value": 494, "unit": "nM"}, {"measurement": "SI vs MC3T3, HeLa Dark", "setting": "HeLa cervix cancer cells; dark, GI50 MC3T3 / GI50 HeLa", "value": 2.3}, {"measurement": "SI vs NIH, HeLa Dark", "setting": "HeLa cervix cancer cells; dark, GI50 NIH-3T3 / GI50 HeLa", "value": 5.5}, {"measurement": "GI50", "setting": "[2]; 458 nm irradiation 10 min, read-out: GI50 MCF7 Blue", "value": 61, "unit": "nM"}, {"measurement": "PI MCF7", "setting": "[2]; [5]", "value": 4.1}, {"measurement": "SI vs MC3T3, MCF7 Blue", "setting": "[2]; blue light, GI50 MC3T3 / GI50 MCF7", "value": 21.8}, {"measurement": "SI vs NIH, MCF7 Blue", "setting": "[2]; blue light, GI50 NIH-3T3 / GI50 MCF7", "value": 43.8}, {"measurement": "GI50", "setting": "[2]; dark, read-out: GI50 MCF7 Dark", "value": 248, "unit": "nM"}, {"measurement": "SI vs MC3T3, MCF7 Dark", "setting": "[2]; dark, GI50 MC3T3 / GI50 MCF7", "value": 4.7}, {"measurement": "SI vs NIH, MCF7 Dark", "setting": "[2]; dark, GI50 NIH-3T3 / GI50 MCF7", "value": 11.0}, {"measurement": "GI50", "setting": "[3]; 458 nm irradiation 10 min, read-out: GI50 PC-3 Blue", "value": 116, "unit": "nM"}, {"measurement": "PI PC-3", "setting": "[3]; [5]", "value": 2.9}, {"measurement": "SI vs MC3T3, PC-3 Blue", "setting": "[3]; blue light, GI50 MC3T3 / GI50 PC-3", "value": 11.5}, {"measurement": "SI vs NIH, PC-3 Blue", "setting": "[3]; blue light, GI50 NIH-3T3 / GI50 PC-3", "value": 23.0}, {"measurement": "GI50", "setting": "[3]; dark, read-out: GI50 PC-3 Dark", "value": 336, "unit": "nM"}, {"measurement": "SI vs MC3T3, PC-3 Dark", "setting": "[3]; dark, GI50 MC3T3 / GI50 PC-3", "value": 3.5}, {"measurement": "SI vs NIH, PC-3 Dark", "setting": "[3]; dark, GI50 NIH-3T3 / GI50 PC-3", "value": 8.1}, {"measurement": "GI50", "setting": "T24 bladder cancer cells; 458 nm irradiation 10 min, read-out: GI50 T24 Blue", "value": 91, "unit": "nM"}, {"measurement": "PI T24", "setting": "T24 bladder cancer cells; [5]", "value": 3.9}, {"measurement": "SI vs MC3T3, T24 Blue", "setting": "T24 bladder cancer cells; blue light, GI50 MC3T3 / GI50 T24", "value": 14.6}, {"measurement": "SI vs NIH, T24 Blue", "setting": "T24 bladder cancer cells; blue light, GI50 NIH-3T3 / GI50 T24", "value": 29.3}, {"measurement": "GI50", "setting": "T24 bladder cancer cells; dark, read-out: GI50 T24 Dark", "value": 358, "unit": "nM"}, {"measurement": "SI vs MC3T3, T24 Dark", "setting": "T24 bladder cancer cells; dark, GI50 MC3T3 / GI50 T24", "value": 3.2}, {"measurement": "SI vs NIH, T24 Dark", "setting": "T24 bladder cancer cells; dark, GI50 NIH-3T3 / GI50 T24", "value": 7.6}, {"measurement": "Average SI vs MC3T3, Blue light", "setting": "[4]; GI50 MC3T3 / GI50 of all irradiated cancer cell lines", "value": 12.1}, {"measurement": "Average SI vs NIH, Blue light", "setting": "[4]; GI50 NIH-3T3 / GI50 of all irradiated cancer cell lines", "value": 24.3}]}
